The results in this text go back to ChEMBL document CHEMBL3585306, “Anti-HIV diarylpyrimidine-quinolone hybrids and their mode of action” (Bioorg Med Chem, 2015).

The nature of data set [1]: Selectivity index, ratio of CC50 for mock-infected human MT4 cells to EC50 for HIV1 3B infected in human MT4 cells. Format: toxicity, cell-based. As to conditions: mock-infected (CC50) and HIV1 3B infected (EC50).
Data set [2] concerns Human immunodeficiency virus 1. Kind of data set: Antiviral activity against wild-type HIV1 3B infected in human MT4 cells assessed as protection of cells from virus-induced cytopathic after 5 days by MTT assay. As to conditions: Human immunodeficiency virus 1, 3B, MT4, 120 h. Format: functional, organism-based. In general terms: Damage to the host cells serves as the signal in cytopathic effect assays.

Data set [3] in a line: Cytotoxicity against mock-infected human MT4 cells after 5 days by MTT assay. The data set is classed as cell-based. A general note: Tetrazolium assays rely on reduction of a dye to a coloured formazan, in cell work by metabolically active cells.
In data set [4] the test system is Human immunodeficiency virus 1. As to the kind of experiment: Antiviral activity against HIV1 harboring K103N/Y181C double mutant infected in human MT4 cells assessed as protection of cells from virus-induced cytopathic after 5 days by MTT assay. Format: functional, organism-based. Particulars: Human immunodeficiency virus 1, MT4, 120 h.
The target in data set [5] is Human immunodeficiency virus type 1 reverse transcriptase (Human immunodeficiency virus 1, UniProt Q72547). As to the kind of experiment: Inhibition of wild-type HIV1 Reverse transcriptase p66/p51 assessed as relative fluorescence signal after 40 mins.
The target of data set [6] is Human immunodeficiency virus type 1 reverse transcriptase (Human immunodeficiency virus 1) (UniProt Q72547). As to the kind of experiment: Inhibition of wild-type HIV1 Reverse transcriptase p66/p51 assessed as fluorescence signal by time-of-addition assay.
Data set [7] deals with Human immunodeficiency virus type 1 integrase (Human immunodeficiency virus 1, UniProt Q7ZJM1). Kind of data set: Inhibition of HIV1 integrase.
Sequence of Human immunodeficiency virus type 1 integrase (Q7ZJM1 whole entry): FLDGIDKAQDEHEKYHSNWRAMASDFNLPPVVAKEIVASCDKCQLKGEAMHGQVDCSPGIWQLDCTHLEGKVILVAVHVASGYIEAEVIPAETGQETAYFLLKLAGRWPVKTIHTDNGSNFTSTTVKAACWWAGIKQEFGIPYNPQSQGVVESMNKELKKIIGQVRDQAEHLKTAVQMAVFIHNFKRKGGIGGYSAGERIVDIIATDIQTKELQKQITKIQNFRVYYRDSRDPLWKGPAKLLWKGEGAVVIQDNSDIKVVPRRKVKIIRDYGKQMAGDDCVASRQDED

Molecules are shown by their SMILES. Calls of active or inactive are those of the source. The rule behind the calls is not given here.

As a reminder, the EC50 is the concentration that produces a half-maximal response. Usually CC50 stands for the concentration giving 50% cytotoxicity. In general, IC50 refers to the point on the concentration scale where inhibition reaches its midpoint.

As to `N#Cc1ccc(Nc2nccc(Oc3ccc4c(=O)c(C(=O)O)cn(C5CCCCC5)c4c3)n2)cc1`, the selectivity ratio in data set [1] was below 1. In addition, the EC50 in data set [2] and in data set [4] was above 3.22 µM throughout. This compound also registered a CC50 at 120 h in data set [3] of 3.22 µM.
On to `Cc1cc(C#N)cc(C)c1Oc1nc(Nc2ccc(C#N)cc2)nc(N)c1Br` [ETRAVIRINE], for which the results for the EC50 in data set [2] and in data set [4] were 0.0019 µM and 0.014 µM, respectively. The same compound had a CC50 at 120 h in data set [3] of 14.2 µM.
Regarding `CCC(C)n1cc(C(=O)O)c(=O)c2ccc(Oc3ccnc(Nc4ccc(C#N)cc4)n3)cc21` (stereo unspecified), the selectivity ratio in data set [1] stood at 1. Besides, the EC50 in data set [2] and in data set [4] was above 274 µM throughout. In data set [3], the CC50 at 120 h was above 274 µM.
For `CCn1cc(C(=O)O)c(=O)c2ccc(Oc3ccnc(Nc4ccc(C#N)cc4)n3)cc21`, the selectivity ratio in data set [1] was found to be 880. The EC50 in data set [2] was 0.28 µM; in data set [4], above 246 µM. Further, the IC50 in data set [5] was found to be 7.15 µM. Besides, the half-maximal cytotoxic concentration (CC50) at 120 h in data set [3] amounted to 246 µM. Further, in data set [6], the inhibition result was “Active”.
For `Cc1ccnc2c1NC(=O)c1cccnc1N2C1CC1` [NEVIRAPINE], the results for the concentration for a half-maximal effect (EC50) in data set [2] and in data set [4] were 0.244 µM and at least 11 µM, respectively. In data set [3], this compound displayed a CC50 at 120 h above 15 µM.
As for `N#Cc1ccc(Nc2nccc(Nc3ccc4c(=O)c(C(=O)O)cn(C5CCCCC5)c4c3)n2)cc1`, in data set [1], the selectivity ratio is below 1. For the same compound, the EC50 in data set [2] and in data set [4] was above 2.18 µM each time. For the same compound, the midpoint of cytotoxicity in data set [3], the CC50 at 120 h, lay at 2.18 µM.
For the compound `CCCCn1cc(C(=O)O)c(=O)c2ccc(Oc3ccnc(Nc4ccc(C#N)cc4)n3)cc21`, the selectivity ratio in data set [1] was at least 604. In addition, the figures for the EC50 in data set [2] and in data set [4] were 0.33 µM and above 199 µM, respectively. Moreover, the IC50 was determined as 3.49 µM in data set [5] and 32.5 µM in data set [7]. The compound also yielded a CC50 at 120 h in data set [3] of at least 199 µM. For the same compound, the inhibition entry in data set [6] is “Active”.
`COc1cc2c(cc1Cc1cccc(Cl)c1F)c(=O)c(C(=O)O)cn2[C@H](CO)C(C)C`: the results for the EC50 in data set [2] and in data set [4] were 0.0031 µM and 0.0022 µM, respectively. In data set [3], it took 4.6 µM to reach half-maximal cytotoxicity (CC50 at 120 h).
For the compound `CCCCn1cc(C(=O)O)c(=O)c2ccc(Nc3ccnc(Nc4ccc(C#N)cc4)n3)cc21`, the selectivity ratio in data set [1] is below 1. Besides, the EC50 in data set [2] and in data set [4] was above 13.6 µM throughout. For the same compound, in data set [3], the CC50 at 120 h is 13.6 µM.
Consider `CCn1cc(C(=O)O)c(=O)c2ccc(Nc3ccnc(Nc4ccc(C#N)cc4)n3)cc21`, for which the selectivity ratio in data set [1] is below 1. Besides, the EC50 in data set [2] and in data set [4] was above 123 µM each time. Besides, the IC50 in data set [5] is 7.07 µM. The CC50 at 120 h in data set [3] was found to be 123 µM.
On to `CCCn1cc(C(=O)O)c(=O)c2ccc(Nc3ccnc(Nc4ccc(C#N)cc4)n3)cc21`, for which the selectivity ratio in data set [1] is below 1. Further, the EC50 in data set [2] and in data set [4] was above 189 µM in each case. The midpoint of cytotoxicity in data set [3], the CC50 at 120 h, lay at 189 µM.
Take `N#Cc1ccc(Nc2nccc(Oc3ccc4c(=O)c(C(=O)O)cn(C5CC5)c4c3)n2)cc1`: in data set [1], the selectivity ratio was at most 1. For the same compound, the EC50 in data set [2] and in data set [4] was above 221 µM each time. For the same compound, in data set [3], the CC50 at 120 h is at least 221 µM.
For `CC(C)n1cc(C(=O)O)c(=O)c2ccc(Oc3ccnc(Nc4ccc(C#N)cc4)n3)cc21`, in data set [1], the selectivity ratio is 1. The EC50 in data set [2] and in data set [4] was above 283 µM in each case. In data set [3], this compound displayed a CC50 at 120 h above 283 µM.
On to `CC(C)Cn1cc(C(=O)O)c(=O)c2ccc(Oc3ccnc(Nc4ccc(C#N)cc4)n3)cc21`, for which the selectivity ratio in data set [1] was above 237. Besides, the EC50 is 1.16 µM in data set [2] and above 274 µM in data set [4]. For the same compound, the IC50 in data set [5] came out at 14 µM. This compound came in with a CC50 at 120 h in data set [3] above 274 µM. In data set [6], the inhibition entry is “Active”.
For `N#Cc1ccc(Nc2nccc(Oc3ccc4c(=O)c(C(=O)O)cn(C5CCCC5)c4c3)n2)cc1`, in data set [1], the selectivity ratio was 5. Further, the 50% effective concentration (EC50) in data set [2] was 0.98 µM; in data set [4] it was above 4.96 µM. The IC50 in data set [5] came out at 6.08 µM. In addition, the CC50 at 120 h in data set [3] was found to be 4.96 µM.
Taken in the same sequence, the figures for `CCCn1cc(C(=O)O)c(=O)c2ccc(Oc3ccnc(Nc4ccc(C#N)cc4)n3)cc21` were at most 569, at least 0.43 µM, above 245 µM, 9.12 µM and 245 µM.
Consider `O=C1Nc2ccc(Cl)cc2[C@@](C#CC2CC2)(C(F)(F)F)O1` [EFAVIRENZ], for which the CC50 at 120 h in data set [3] is above 6.5 µM. Moreover, the EC50 in data set [4] came out at 0.14 µM.
Take `CC(C)n1cc(C(=O)O)c(=O)c2ccc(Nc3ccnc(Nc4ccc(C#N)cc4)n3)cc21`: the selectivity ratio in data set [1] is below 1. Moreover, the EC50 in data set [2] and in data set [4] was above 10.9 µM in each case. The same compound showed a half-maximal cytotoxic concentration (CC50) at 120 h in data set [3] of 10.9 µM.
As to `Cc1cn([C@H]2C[C@H](N=[N+]=[N-])[C@@H](CO)O2)c(=O)[nH]c1=O` [ZIDOVUDINE], the selectivity ratio in data set [1] is 16800. Moreover, the EC50 amounted to 0.0056 µM in data set [2] and 0.0052 µM in data set [4]. In data set [3], this compound showed a 50% cytotoxic concentration (CC50) at 120 h above 94 µM.
